Results taken from article PMC12138688, “Identification of Orthosteric GABAB Receptor Ligands by Virtual Screening and In Vitro Validation” (ACS Omega, 2025).

Target: GABAB-R
Assay: not given
Details: read-out: Ki value; cited from earlier work
In the case of CGP54626, the Ki is given as 7.08 nM.

System: human GABAB-R (ChEMBL ID: CHEMBL2111463)
Assay: not given
Details: cited from earlier work
In the case of CCOC(OCC)P(=O)(O)CCCN [CHEMBL40157, NCCCP(=O)(C(OCC)OCC)O], the Activity is listed as “Antagonist”. For NCC(CC(=O)O)c1ccc(Cl)s1 (stereo not shown) [CHEMBL87482, NCC(CC(=O)O)c1ccc(Cl)s1], the Activity is listed as “Agonist”. For NCC(C[PH](=O)O)c1ccccc1 (stereo not shown) [CHEMBL109752, NCC(C[PH](=O)O)c1ccccc1], the Activity is given as “Agonist”. In the case of NC(CC[PH](=O)O)c1ccc(Cl)cc1 (stereo not shown) [CHEMBL110306, NC(CC[PH](=O)O)c1ccc(Cl)cc1], the Activity is given as “Agonist”. For NCCC(c1ccccc1)[PH](=O)O (stereo not shown) [CHEMBL111127, NCCC(c1ccccc1)[PH](=O)O], the Activity is listed as “Agonist”. In the case of NCC(C[PH](=O)O)c1ccc(F)cc1 (stereo not shown) [CHEMBL111378, NCC(C[PH](=O)O)c1ccc(F)cc1], the Activity is listed as “Agonist”. For CP(=O)(O)CC(O)CN (stereo not shown) [CHEMBL113348, CP(=O)(CC(CN)O)O], the Activity is listed as “Agonist”. In the case of NCC(O)C[PH](=O)O (stereo not shown) [CHEMBL113453, NCC(O)C[PH](=O)O], the Activity is given as “Agonist”. In the case of NCCC(c1ccc(Cl)cc1)[PH](=O)O (stereo not shown) [CHEMBL114020, NCCC(c1ccc(Cl)cc1)[PH](=O)O], the Activity is given as “Agonist”. For NCC(C[PH](=O)O)c1ccc(Cl)cc1 (stereo not shown) [CHEMBL430501, NCC(C[PH](=O)O)c1ccc(Cl)cc1], the Activity is listed as “Agonist”. For CC(NCC(O)CP(=O)(O)Cc1ccccc1)c1ccc(Cl)c(Cl)c1 (stereo not shown) [CHEMBL455185, OC(CP(=O)(Cc1ccccc1)O)CNC(c1ccc(c(c1)Cl)Cl)C], the Activity is listed as “Antagonist”. For NCC(O)(CS(=O)(=O)O)c1ccc(Cl)cc1 (stereo not shown) [CHEMBL1256573, NCC(c1ccc(cc1)Cl)(CS(=O)(=O)O)O], the Activity is listed as “Antagonist”. For CC(C)(CO)Cc1cc(C(C)(C)C)c(O)c(C(C)(C)C)c1 [CHEMBL1256697, CC(C)(CO)Cc1cc(C(C)(C)C)c(O)c(C(C)(C)C)c1], the Activity is given as “PAM”.

System: not listed separately
Assay: Solubility of stock in 100% DMSO
Assay type: physicochemical
Details: stock reduced to 5 mM
Protocol: The 34 compounds for in vitro testing were purchased from MolPort (https://www.molport.com/). The test compounds were dissolved in 100% DMSO at a stock concentration of 10 mM and stored at −20 °C. […] Stock compounds were subsequently serially diluted in 100% DMSO and finally in a D-glucose solution (20 mM NaOH, 5 mM D-glucose) to obtain final concentrations for testing.
For CN(Cc1ccc(Cl)c(Cl)c1)Cc1nc2ccsc2c(=O)[nH]1 [Compound 5, CN(Cc1ccc(Cl)c(Cl)c1)Cc1nc2ccsc2c(=O)[nH]1], the “solubility of 10 mM stock” value was “solubility problems”. In the case of CSCCC(NC(=O)N1CC(O)=Nc2ccccc21)C(=O)NCc1ccc(Cl)cc1Cl (stereo not shown) [Compound 25, CSCCC(NC(=O)N1CC(O)=Nc2ccccc12)C(=O)NCc1ccc(Cl)cc1Cl], the “solubility of 10 mM stock” value is reported as “solubility problems”.
